Where two headings read alike, the source gives them in different places. Square brackets hold non-standard residues; d marks the D form. Ends that are not written are not given here. Peptide text beside a SMILES is read from it. Hyp = O=C(O)[C@@H]1C[C@@H](O)CN1

For this test, the target named is T1, DPP-4 (manufactured by Sigma, derived from porcine kidney) (Sus scrofa, UniProt P22411).
T1 construct: derived from porcine kidney; purchased Sigma; host or cells: porcine kidney (tissue-derived)
Put plainly: DPP-4 inhibition rate and IC50 measurement, fluorescence of AMC freed from Gly-Pro-MCA. It counts as biochemical. Conditions: for inhibition at 350 µg/mL / Inhibition rate (%) at 0.35 mg/ml time: sample 0.35 mg/ml, substrate Gly-Pro-MCA, pH 7.5, 37° C.; for inhibition at 350 µg/mL: read-out: Inhibition rate (%) at 0.35 mg/ml time. As for the experimental part: A sample liquid 35 μl obtained by dissolving a sample 1 mg in 50 mM tris-hydrochloric acid buffer (pH 7.5) 1 ml and DPP-4 (manufactured by Sigma, derived from porcine kidney; 8.6 mU/ml) 15 μl that had been dissolved in 50 mM tris-hydrochloric acid buffer (pH 7.5) were mixed in a microtiter plate well (manufactured by NUNC, trade name “237015”) and incubated at 37° C. for 10 minutes.
Thereto, 50 μl of a substrate solution (one obtained by dissolving glycyl-Pro-4-methylcoumarin-7-amide (Gly-Pro-MCA) in 50 mM tris-hydrochloric acid buffer (pH 7.5) so as to be 10 μM) that had in advance heated to and kept at 37° C. was added, mixed, and allowed to react at 37° C. for 20 minutes.
The fluorescence intensity of 7-amino-4-methylcoumarin (AMC) that was freed by DPP-4 was measured with time by a microplate reader type fluorescence detector (manufactured by Corona Electric Co., Ltd., trade name “SH-9000”). Note that the measurement wavelength was an excitation wavelength of 380 nm and a measurement wavelength of 460 nm. Note that one obtained by using the same amount of 50 mM tris-hydrochloric acid buffer (pH 7.5) in replace of the sample was used as a control; and the fluorescence intensity thereof was measured.
The activity of DPP-4 was expressed by an average gradient of change in the amount of the fluorescence intensity during the reaction time; and, as for DPP-4 inhibition rate, difference obtained by, with the control as 100%, subtracting the activity of the sample from the above-mentioned control was calculated as an inhibition rate (%).
In accordance with the above method of measuring a DPP-4 inhibition rate, sample concentration was changed between 0.001 and 7.2 μmol/ml to obtain the inhibition rate, thereby calculating the 50% inhibitory concentration (IC50 value) of the activity of DPP-4.

[1] abbreviates: Table 2, sample concentration changed between 0.001 and 7.2 μmol/ml, read-out: IC50 value.
Where [2] appears, read: Table 1, sample concentration changed between 0.001 and 7.2 μmol/ml, read-out: IC50 value.
Setting [3] is: Table 1, sample concentration changed between 0.001 and 7.2 μmol/ml.

T1 sequence (P22411 whole entry): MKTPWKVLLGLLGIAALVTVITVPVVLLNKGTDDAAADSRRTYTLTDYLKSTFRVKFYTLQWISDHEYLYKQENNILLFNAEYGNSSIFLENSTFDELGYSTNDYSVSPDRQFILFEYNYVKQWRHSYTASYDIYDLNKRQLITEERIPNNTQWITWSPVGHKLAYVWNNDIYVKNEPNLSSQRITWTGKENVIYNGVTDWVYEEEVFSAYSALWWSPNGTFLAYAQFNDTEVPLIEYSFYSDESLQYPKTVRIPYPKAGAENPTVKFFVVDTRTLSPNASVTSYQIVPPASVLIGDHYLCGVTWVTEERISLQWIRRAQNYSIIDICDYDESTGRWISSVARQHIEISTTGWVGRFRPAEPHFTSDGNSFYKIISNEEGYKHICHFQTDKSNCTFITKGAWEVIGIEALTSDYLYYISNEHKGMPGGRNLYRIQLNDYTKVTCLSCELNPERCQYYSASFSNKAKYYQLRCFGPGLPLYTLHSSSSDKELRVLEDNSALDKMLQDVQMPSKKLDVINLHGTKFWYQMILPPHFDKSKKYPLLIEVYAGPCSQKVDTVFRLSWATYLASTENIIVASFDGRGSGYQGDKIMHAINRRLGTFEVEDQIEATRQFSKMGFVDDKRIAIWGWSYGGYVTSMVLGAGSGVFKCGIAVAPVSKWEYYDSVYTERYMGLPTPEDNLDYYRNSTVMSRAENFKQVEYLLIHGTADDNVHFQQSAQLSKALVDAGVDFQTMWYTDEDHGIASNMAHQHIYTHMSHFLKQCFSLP

The IC50 is the concentration that inhibits the measured activity by half. For the molecule `CC(C)C[C@H](N)C(=O)N1C[C@H](O)C[C@H]1C(=O)NCC(=O)O` [Example 21, Leu-Hyp-Gly] (H-Leu-[Hyp]-Gly-OH), the inhibition at 350 µg/mL (Table 2) is 89.3%. Under setting [1], the IC50 was 130 µM.

Take LPGPA [Example 18, Leu-Pro-Gly-Pro-Ala]: where the note is “Table 2”, the inhibition at 350 µg/mL turned out to be 94.9%. The half-maximal inhibitory concentration (IC50) under setting [1] is 63 µM.

Consider `CC[C@H](C)[C@H](N)C(=O)N1C[C@H](O)C[C@H]1C(=O)NCC(=O)O` [Example 22, Ile-Hyp-Gly] (H-Ile-[Hyp]-Gly-OH; N-terminus and C-terminus assumed), for which, under “Table 2”, the inhibition at 350 µg/mL came to 71%. Further, the half-inhibitory concentration (IC50) under setting [1] worked out at 500 µM.

“GAVGPA [Example 14, Gly-Ala-Val-Gly-Pro-Ala]”: the inhibition at 350 µg/mL (Table 1) is 63.7%. For the same molecule, the half-maximal inhibitory concentration (IC50) under setting [2] amounted to 437 µM.

Turning to “GPAGPR [Example 2, Gly-Pro-Ala-Gly-Pro-Arg]”, the IC50 under setting [2] was 80 µM.

On to `CC(C)C[C@H](N)C(=O)N1CCC[C@H]1C(=O)O` [Example 16, Leu-Pro] (H-Leu-Pro-OH; N-terminus and C-terminus assumed), for which the inhibition at 350 µg/mL (Table 2) was 92.1%. For the same molecule, under setting [1], the IC50 was 110 µM.

Take “GPAGPI [Example 4, Gly-Pro-Ala-Gly-Pro-Ile]”: the IC50 under setting [2] worked out at 50 µM.

With `CC(C)C[C@H](N)C(=O)N1C[C@H](O)C[C@H]1C(=O)NCC(=O)N1CCC[C@H]1C(=O)N[C@@H](C)C(=O)O` [Example 23, Leu-Hyp-Gly-Pro-Ala] (H-L[Hyp]GPA-OH), the inhibition at 350 µg/mL (Table 2) was found to be 52.1%. Besides, the IC50 under setting [1] stood at 830 µM.

On to GAVGP [Example 15, Gly-Ala-Val-Gly-Pro], for which, where the note is “Table 1”, the inhibition at 350 µg/mL was determined as 40.9%. Moreover, the half-inhibitory concentration (IC50) under setting [2] amounted to 1200 µM.

As for `CC(C)C[C@H](N)C(=O)N1C[C@H](O)C[C@H]1C(=O)O` [Example 20, Leu-Hyp] (H-Leu-[Hyp]-OH), the inhibition at 350 µg/mL (Table 2) was found to be 48.6%.

Take `C[C@H](N)C(=O)N1C[C@H](O)C[C@H]1C(=O)NCC(=O)O` [Example 25, Ala-Hyp-Gly] (H-Ala-[Hyp]-Gly-OH; N-terminus and C-terminus assumed): for the setting “Table 2”, the inhibition at 350 µg/mL is 14.6%. Besides, the IC50 under setting [1] was 9450 µM.

In the case of “GPIGPV [Example 6, Gly-Pro-Ile-Gly-Pro-Val]”, the half-maximal inhibitory concentration (IC50) was 9.3 µM.

Turning to “GAIGPA [Example 12, Gly-Ala-Ile-Gly-Pro-Ala]”, the inhibition at 350 µg/mL (Table 1) was 71.5%. Under setting [2], the IC50 is 285 µM.

With “Gly-Ala-Hyp (Gly-Ala-[Hyp]) [compound 2, reference compound]”, the “Inhibition rate (%) at 0.35 mg/ml time” value (Table 1) turned out to be 0%. Also, the IC50 value result under setting [3] is reported as “No inhibitory”.

For `C[C@H](NC(=O)[C@@H]1CCCN1C(=O)CN)C(=O)NCC(=O)O` [Example 9, Gly-Pro-Ala-Gly] (H-GPAG-OH; N-terminus and C-terminus assumed), the half-inhibitory concentration (IC50) under setting [2] was determined as 150 µM.

On to “GAIGPS [Example 13, Gly-Ala-Ile-Gly-Pro-Ser]”, for which the inhibition at 350 µg/mL (Table 1) worked out at 70.4%. Besides, the IC50 under setting [2] came out at 314 µM.

For `O=C(O)CNC(=O)[C@@H]1C[C@@H](O)CN1C(=O)[C@@H]1CCCN1` [Example 24, Pro-Hyp-Gly] (H-Pro-[Hyp]-Gly-OH; N-terminus and C-terminus assumed), the inhibition at 350 µg/mL (Table 2) came out at 27.2%. Also, the IC50 under setting [1] came to 4640 µM.

`C[C@H](NC(=O)CN)C(=O)O` [Example 11, Gly-Ala] (H-Gly-Ala-OH; N-terminus and C-terminus assumed): the inhibition at 350 µg/mL (Table 1) amounted to 42.5%. Also, the IC50 under setting [2] was 3340 µM.

For the molecule “GPLGPV [Example 5, Gly-Pro-Leu-Gly-Pro-Val]”, under setting [2], the IC50 was determined as 24 µM.

“Gly-Pro-Hyp (Gly-Pro-[Hyp]) [Comparative Example 1, reference compound]”: the “Inhibition rate (%) at 0.35 mg/ml time” value (Table 1) worked out at 0%. The IC50 value entry under setting [3] is recorded as “No inhibitory”.

On to “H-GPAGP-OH [Example 1, Gly-Pro-Ala-Gly-Pro]”, for which the inhibition at 350 µg/mL (Table 1) was determined as 95.8%. The IC50 under setting [2] stood at 60 µM.

(Values after patent US9340579B2, “DPP-4 inhibitor” (NIPPI, INCORPORATED, priority 2011, dated 2016).)
